# Data published in patent US12442042B2, “Epigenomic profiling reveals the somatic promoter landscape of primary gastric adenocarcinoma” (AGENCY FOR SCIENCE, TECHNOLOGY AND RESEARCH, priority 2016, dated 2025).
# Experiments:
# IM95 GC cells = test: EZH2 inhibition: RNA-seq of GSK126-treated IM95 cells at promoter loci; type: cell-based, human
# Description: IM95 were treated with GSK126 (Selleck, USA), a selective EZH2 inhibitor, at a concentration of 5 μM. Cell proliferation was monitored in 96-well plates post-treatment with GSK126 using the CellTiter-Glo® Luminescent Cell Viability Assay (Promega) for three independent experiments. For RNA-seq analysis, total RNA was extracted using the Qiagen RNAeasy mini kit according to manufacturer's instructions. Cells were treated with GSK126 (Selleck, USA; dissolved in DMSO) at a concentration of 5 μM. Control cells were treated with the same concentration of DMSO (0.1%). RNAseq differential analysis for promoter loci was carried out using edgeR on read counts mapping to H3K4me3 regions estimated using featureCounts. RNAseq gene level differential analysis was performed using cuffdiff2.2.1.
# PBMCs = test: EpiMAX assay: cytokine multiplex on supernatants of PBMCs stimulated with peptide pools; type: cell-based, human
# Description: A set of peptides for 15 representative alternative promoters was purchased from GenScript (GenScript). Peptide sequences and composition of peptide pools for each alternative promoter are described in Table 3. Control peptide pools for human Actin were purchased from JPT (PM-ACTS, PepMix™ Human (Actin) JPT). Peripheral blood mononuclear cells (PBMCs) were obtained from 9 healthy volunteers of whom 8 PBMC samples were HLA-typed (Table 3).
# PBMCs were labelled with 1 μM CFSE (Life Technologies, Thermo Fisher Scientific) and cultured at a density of 200,000 cells per well in complete culture medium (cRPMI comprising RPMI 1640 medium (Gibco, Thermo Fisher Scientific), 15 mM HEPES (Gibco), 1% non-essential amino acid (Gibco), 1 mM sodium pyruvate (Gibco), 1% penicillin/streptomycin (Gibco), 2 mM L-glutamine (Gibco), 50 μM β2-mercaptoethanol (Sigma, Merck), and 10% heat-inactivated FCS (Hyclone)) for 5 days. Individual peptide pools of each alternative promoter were added at the start of the culture at a concentration of 1 μg/ml for each peptide. At the end of day 5, cells were stained with LIVE/DEAD® fixable near-IR dead cell stain kit (Life Technologies), and labelled with CD4-BUV737 (BD), CD8-PacificBlue (BD), CD3-PE (BioLegend), CD19-PE/TexasRed (Beckman), and CD56-APC (BD). Analysis of T cell proliferation by CFSE dilution was performed by flow cytometry using a LSRII (BD). In addition, magnetic bead-based cytokine multiplex analysis (human cytokine panel 1, Millipore, Merck) was performed on cell culture supernatants to measure secreted cytokine levels.
# [1] = Donor 1 PBMCs stimulated with peptide pool
# [2] = Donor 2 PBMCs stimulated with peptide pool
# [3] = Donor 3 PBMCs stimulated with peptide pool
# [4] = Donor 4 PBMCs stimulated with peptide pool
# [5] = Donor 5 PBMCs stimulated with peptide pool
# [6] = Donor 6 PBMCs stimulated with peptide pool
# [7] = Donor 7 PBMCs stimulated with peptide pool
# [8] = Donor 8 PBMCs stimulated with peptide pool
# [9] = Donor 9 PBMCs stimulated with peptide pool
compound,measurement,setting,value
CC[C@H](C)n1cc(C)c2c(C(=O)NCc3c(C)cc(C)[nH]c3=O)cc(-c3ccc(N4CCNCC4)nc3)cc21 [GSK126],deregulated promoters mapping to somatic promoters lost in primary GC that were reactivated,"IM95 GC cells; 78/87, FC>=2, qval<0.1",89.6%
same,gene sets of genes upregulated upon EZH2 inhibition,"IM95 GC cells; Day 6 and 9, RNA-seq",enriched in previously identified PRC2 target gene sets
same,"OR, somatic promoters vs all GSK126 regulated genes","IM95 GC cells; Fisher Test, P<0.001",9.21
same,"OR, somatic promoters vs unaltered promoters changing expression","IM95 GC cells; Fisher Test, P<0.001",1.46
same,promoters deregulated in total,"IM95 GC cells; GSK126 5 μM, Day 6 and 9, RNA-seq",2134
same,proportion of somatic promoters deregulated,"IM95 GC cells; GSK126 5 μM, RNA-seq",12.8%
same,proportion of unaltered promoters exhibiting deregulation,"IM95 GC cells; GSK126 5 μM, RNA-seq",8.8%
same,somatic promoters deregulated (of 1959 promoters exhibiting somatic alterations in primary GCs),"IM95 GC cells; GSK126 5 μM, RNA-seq",251
same,total proportion of genes (as defined by Gencode) regulated,"IM95 GC cells; GSK126 5 μM, RNA-seq",1.5%
same,expression at PSCA TSS (lost somatic promoter),IM95 GC cells; day 6 (D6) and Day 9 (D9),Gain of expression
same,expression at SLC9A9 TSS (lost somatic promoter),IM95 GC cells; day 6 (D6) and Day 9 (D9),Gain of expression
same,expression at alternative promoter ESRRG (lost promoter activity),IM95 GC cells; day 6 (D6) and Day 9 (D9),Gain of expression
Actin,Analyte concentration GM-CSF,PBMCs; [1],19.57 pg/mL
same,Analyte concentration IFNg,PBMCs; [1],147.18 pg/mL
same,Analyte concentration IL-2,PBMCs; [1],34.21 pg/mL
same,Analyte concentration IL-3,PBMCs; [1],1.46 pg/mL
same,Analyte concentration IL-4,PBMCs; [1],0.03 pg/mL
same,Analyte concentration IL-7,PBMCs; [1],0.085 pg/mL
same,Analyte concentration IL-9,PBMCs; [1],1.22 pg/mL
same,Analyte concentration IL-10,PBMCs; [1],10.1 pg/mL
same,Analyte concentration IL-13,PBMCs; [1],14.2 pg/mL
same,Analyte concentration IL-15,PBMCs; [1],0.925 pg/mL
same,Analyte concentration IL-17A,PBMCs; [1],0.02 pg/mL
same,Analyte concentration TNFa,PBMCs; [1],101.44 pg/mL
same,Analyte concentration sCD40L,PBMCs; [1],0.78 pg/mL
same,Fold change of total cytokine response (normalized against Actin control),PBMCs; [1],1.00
same,Total analytes,PBMCs; [1],331.40 pg/mL
same,Analyte concentration GM-CSF,PBMCs; [2],15.58 pg/mL
same,Analyte concentration IFNg,PBMCs; [2],7.71 pg/mL
same,Analyte concentration IL-2,PBMCs; [2],11.28 pg/mL
same,Analyte concentration IL-3,PBMCs; [2],0.76 pg/mL
same,Analyte concentration IL-4,PBMCs; [2],0.03 pg/mL
same,Analyte concentration IL-7,PBMCs; [2],1.73 pg/mL
same,Analyte concentration IL-9,PBMCs; [2],1.22 pg/mL
same,Analyte concentration IL-10,PBMCs; [2],5.29 pg/mL
same,Analyte concentration IL-13,PBMCs; [2],13.75 pg/mL
same,Analyte concentration IL-15,PBMCs; [2],0.925 pg/mL
same,Analyte concentration IL-17A,PBMCs; [2],0.02 pg/mL
same,Analyte concentration TNFa,PBMCs; [2],9.18 pg/mL
same,Analyte concentration sCD40L,PBMCs; [2],1.81 pg/mL
same,Fold change of total cytokine response (normalized against Actin control),PBMCs; [2],1.00
same,Total analytes,PBMCs; [2],69.29 pg/mL
same,Analyte concentration GM-CSF,PBMCs; [3],56.66 pg/mL
same,Analyte concentration IFNg,PBMCs; [3],60.86 pg/mL
same,Analyte concentration IL-2,PBMCs; [3],13.4 pg/mL
same,Analyte concentration IL-3,PBMCs; [3],0.56 pg/mL
same,Analyte concentration IL-4,PBMCs; [3],4.53 pg/mL
same,Analyte concentration IL-7,PBMCs; [3],0.085 pg/mL
same,Analyte concentration IL-9,PBMCs; [3],1.22 pg/mL
same,Analyte concentration IL-10,PBMCs; [3],2.56 pg/mL
same,Analyte concentration IL-13,PBMCs; [3],5.96 pg/mL
same,Analyte concentration IL-15,PBMCs; [3],0.925 pg/mL
same,Analyte concentration IL-17A,PBMCs; [3],2.89 pg/mL
same,Analyte concentration TNFa,PBMCs; [3],20.69 pg/mL
same,Analyte concentration sCD40L,PBMCs; [3],0.01 pg/mL
same,Fold change of total cytokine response (normalized against Actin control),PBMCs; [3],1.00
same,Total analytes,PBMCs; [3],170.35 pg/mL
same,Analyte concentration GM-CSF,PBMCs; [4],0.66 pg/mL
same,Analyte concentration IFNg,PBMCs; [4],0.01 pg/mL
same,Analyte concentration IL-2,PBMCs; [4],1.27 pg/mL
same,Analyte concentration IL-3,PBMCs; [4],0.005 pg/mL
same,Analyte concentration IL-4,PBMCs; [4],0.03 pg/mL
same,Analyte concentration IL-7,PBMCs; [4],0.085 pg/mL
same,Analyte concentration IL-9,PBMCs; [4],1.22 pg/mL
same,Analyte concentration IL-10,PBMCs; [4],0.18 pg/mL
same,Analyte concentration IL-13,PBMCs; [4],0.99 pg/mL
same,Analyte concentration IL-15,PBMCs; [4],0.925 pg/mL
same,Analyte concentration IL-17A,PBMCs; [4],0.02 pg/mL
same,Analyte concentration TNFa,PBMCs; [4],1.49 pg/mL
same,Analyte concentration sCD40L,PBMCs; [4],0.01 pg/mL
same,Fold change of total cytokine response (normalized against Actin control),PBMCs; [4],1.00
same,Total analytes,PBMCs; [4],6.90 pg/mL
same,Analyte concentration GM-CSF,PBMCs; [5],0.66 pg/mL
same,Analyte concentration IFNg,PBMCs; [5],1.65 pg/mL
same,Analyte concentration IL-2,PBMCs; [5],1.4 pg/mL
same,Analyte concentration IL-3,PBMCs; [5],0.005 pg/mL
same,Analyte concentration IL-4,PBMCs; [5],0.03 pg/mL
same,Analyte concentration IL-7,PBMCs; [5],0.085 pg/mL
same,Analyte concentration IL-9,PBMCs; [5],1.22 pg/mL
same,Analyte concentration IL-10,PBMCs; [5],5.5 pg/mL
same,Analyte concentration IL-13,PBMCs; [5],1.44 pg/mL
same,Analyte concentration IL-15,PBMCs; [5],0.925 pg/mL
same,Analyte concentration IL-17A,PBMCs; [5],0.02 pg/mL
same,Analyte concentration TNFa,PBMCs; [5],3.08 pg/mL
same,Analyte concentration sCD40L,PBMCs; [5],0.01 pg/mL
same,Fold change of total cytokine response (normalized against Actin control),PBMCs; [5],1.00
same,Total analytes,PBMCs; [5],16.03 pg/mL
same,Analyte concentration GM-CSF,PBMCs; [6],18.18 pg/mL
same,Analyte concentration IFNg,PBMCs; [6],135.48 pg/mL
same,Analyte concentration IL-2,PBMCs; [6],11.03 pg/mL
same,Analyte concentration IL-3,PBMCs; [6],0.5 pg/mL
same,Analyte concentration IL-4,PBMCs; [6],0.03 pg/mL
same,Analyte concentration IL-7,PBMCs; [6],0.085 pg/mL
same,Analyte concentration IL-9,PBMCs; [6],1.22 pg/mL
same,Analyte concentration IL-10,PBMCs; [6],4.66 pg/mL
same,Analyte concentration IL-13,PBMCs; [6],8.77 pg/mL
same,Analyte concentration IL-15,PBMCs; [6],0.925 pg/mL
same,Analyte concentration IL-17A,PBMCs; [6],2.22 pg/mL
same,Analyte concentration TNFa,PBMCs; [6],38.39 pg/mL
same,Analyte concentration sCD40L,PBMCs; [6],0.01 pg/mL
same,Fold change of total cytokine response (normalized against Actin control),PBMCs; [6],1.00
same,Total analytes,PBMCs; [6],222.13 pg/mL
same,Analyte concentration GM-CSF,PBMCs; [7],3.31 pg/mL
same,Analyte concentration IFNg,PBMCs; [7],6.53 pg/mL
same,Analyte concentration IL-2,PBMCs; [7],0.77 pg/mL
same,Analyte concentration IL-3,PBMCs; [7],0.01 pg/mL
same,Analyte concentration IL-4,PBMCs; [7],0.03 pg/mL
same,Analyte concentration IL-7,PBMCs; [7],2.29 pg/mL
same,Analyte concentration IL-9,PBMCs; [7],1.22 pg/mL
same,Analyte concentration IL-10,PBMCs; [7],7.7 pg/mL
same,Analyte concentration IL-13,PBMCs; [7],0.14 pg/mL
same,Analyte concentration IL-15,PBMCs; [7],0.925 pg/mL
same,Analyte concentration IL-17A,PBMCs; [7],0.02 pg/mL
same,Analyte concentration TNFa,PBMCs; [7],48.35 pg/mL
same,Analyte concentration sCD40L,PBMCs; [7],0.01 pg/mL
same,Fold change of total cytokine response (normalized against Actin control),PBMCs; [7],1.00
same,Total analytes,PBMCs; [7],71.31 pg/mL
same,Analyte concentration GM-CSF,PBMCs; [8],0.66 pg/mL
same,Analyte concentration IFNg,PBMCs; [8],1.12 pg/mL
same,Analyte concentration IL-2,PBMCs; [8],1.9 pg/mL
same,Analyte concentration IL-3,PBMCs; [8],0.22 pg/mL
same,Analyte concentration IL-4,PBMCs; [8],0.03 pg/mL
same,Analyte concentration IL-7,PBMCs; [8],0.085 pg/mL
same,Analyte concentration IL-9,PBMCs; [8],1.22 pg/mL
same,Analyte concentration IL-10,PBMCs; [8],3.61 pg/mL
same,Analyte concentration IL-13,PBMCs; [8],0.03 pg/mL
same,Analyte concentration IL-15,PBMCs; [8],0.925 pg/mL
same,Analyte concentration IL-17A,PBMCs; [8],0.02 pg/mL
same,Analyte concentration TNFa,PBMCs; [8],2.64 pg/mL
same,Analyte concentration sCD40L,PBMCs; [8],0.58 pg/mL
same,Fold change of total cytokine response (normalized against Actin control),PBMCs; [8],1.00
same,Total analytes,PBMCs; [8],13.04 pg/mL
same,Analyte concentration GM-CSF,PBMCs; [9],0.66 pg/mL
same,Analyte concentration IFNg,PBMCs; [9],3.49 pg/mL
same,Analyte concentration IL-2,PBMCs; [9],0.77 pg/mL
same,Analyte concentration IL-3,PBMCs; [9],0.36 pg/mL
same,Analyte concentration IL-4,PBMCs; [9],0.03 pg/mL
same,Analyte concentration IL-7,PBMCs; [9],2.01 pg/mL
same,Analyte concentration IL-9,PBMCs; [9],1.22 pg/mL
same,Analyte concentration IL-10,PBMCs; [9],2.13 pg/mL
same,Analyte concentration IL-13,PBMCs; [9],1.05 pg/mL
same,Analyte concentration IL-15,PBMCs; [9],0.925 pg/mL
same,Analyte concentration IL-17A,PBMCs; [9],0.58 pg/mL
same,Analyte concentration TNFa,PBMCs; [9],56.18 pg/mL
same,Analyte concentration sCD40L,PBMCs; [9],0.01 pg/mL
same,Fold change of total cytokine response (normalized against Actin control),PBMCs; [9],1.00
same,Total analytes,PBMCs; [9],69.42 pg/mL
